Data on 20 molecules can be found in patent publication EP4585216A1, “HETEROCYCLIC COMPOUNDS FOR THE TREATMENT OF FATTY LIVER DISEASE” (ScandiEdge Therapeutics AB, priority 2024, dated 2025).

Assay [1] concerns the target T1, pyruvate kinase liver (PKL) (Homo sapiens, UniProt P30613).
T1 construct: endogenous in cells; host or cells: HepG2 PKM2 CRISPR KO (HepG2 KO) cells; lysate in CelLytic M or treated whole cells
Briefly: Pyruvate kinase activity in treated HepG2 PKM2 CRISPR KO cells. The class given is cell-based. The following applies: 10 µM for 4 h; for effect on PK activity in HepG2 KO cells (in words): compared to the control. The procedure: (§1) HepG2 WT and HepG2 KO cells were lysed, and protein lysate was prepared with CelLytic M (C2978, Sigma-Aldrich) lysis buffer. Protein lysate was treated with 10 µM of the drugs and the pyruvate kinase activity on protein lysate was measured using Pyruvate Kinase Assay Kit (ab83432, abeam) following manufacturer's instruction. 2×10^4 HepG2 WT cells and 1×10^5 HepG2 KO cells were seeded into a 96-well plate for measuring pyruvate kinase activity in the cells. The cells were treated with 10-20µM of drugs for 4h and washed with 250µl PBS. Cells were lysed with 50 µl PK assay buffer (ab83432, abcam) and start reaction and kinetic O.D measurement was performed on 50µl PK assay buffer containing the assay component (ab83432, abcam). O.D values were measured with microplate reader (Hidex Sense Beta Plus) at 570nm wavelength. DMSO was used as control.
(§2) The effect of the target compounds was studied on liver cell line HepG2. HepG2 expresses two different pyruvate kinases (PK), pyruvate kinase muscle (PKM2) and pyruvate kinase liver (PKL). While most cells express PKM, liver cells further express PKL. […] In addition to HepG2 KO cell, HepG2 wild-type (HepG2 WT) cells were also used.

In assay [2] the test system is pyruvate kinase (PK). Kind of assay: Pyruvate kinase activity in treated HepG2 WT cells. The class given is cell-based. The settings on record: 10 µM for 4 h; for effect on PK activity in HepG2 WT cells (in words): compared to the control. The procedure: as §1, §2
Assay [3] concerns pyruvate kinase (PK). Kind of assay: Pyruvate kinase activity in HepG2 WT protein lysate. The class given is biochemical. The settings on record: 10 µM; for reduction in PK activity of HepG2 WT protein lysate: compared to the control (DMSO); for PK activity of HepG2 WT protein lysate (in words): batches 4 and 5. The protocol:
as §1, §2

Assay [4] addresses T1, pyruvate kinase liver (PKL). Briefly: Pyruvate kinase activity in HepG2 PKM2 CRISPR KO protein lysate. The format is biochemical. The following applies: for inhibition at 10 µM / reduction in PK activity of HepG2 KO protein lysate: compared to the control (DMSO); for inhibition at 10 µM: read-out: reduction in PK activity of HepG2 KO protein lysate; for reduction in PK activity of HepG2 KO protein lysate / PK activity of HepG2 KO protein lysate (in words): 10 µM; for PK activity of HepG2 KO protein lysate (in words): batches 4 and 5. The procedure:
as §1, §2

Another assay deals with HepG2 cells. Kind of assay: TAG measurement in DNL steatosis model. The class given is cell-based. The settings on record: for reduction in TAG/MTT ratio / TAG content (in words): 10 µM for 1 week; for reduction in TAG/MTT ratio: compared to the control (DMSO). The protocol: HepG2 wild type cells were purchased from genome engineering company Synthego. Cells were maintained with growth media RPMI 1640 (R2405, Sigma-Aldrich) and supplemented with 10 % fetal bovine serum (FBS, F7524, Sigma-Aldrich), 1 % penicillin-streptomycin (P/S media, P4333, Sigma-Aldrich). Steatosis induction media was prepared as DMEM high glucose (D0819, Sigma-Aldrich) with 10% FBS, 1% P/S media supplemented with 10µg/ml insulin (I9278, Sigma-Aldrich), and 10µM T0901317 (T2320, Sigma-Aldrich) for one week. HepG2 cells were seeded 6×10^4 cells per well into a 96-well plate for TAG and MTT assay after steatosis and 1×10^6 cells per well into 6-well plate for western blot analysis after steatosis. HepG2 cells were incubated with steatosis induce media (SM) for one week by 3 day + 2 day + 2 day with total three times media exchange.
HepG2 cells were seeded at 6×10^4 cells per well into 96-well plate and induced steatosis for one week with designated concentration of small molecules (this will be referred to as a DNL steatosis model). After steatosis induction, cells were washed with 200 µl of PBS and triglyceride contents was measured by Triglyceride Assay Kit - Quantification (ab65336, Abeam) following manufacturer's instruction. Optical density (O.D) values were detected with microplate reader at 570 nm (Hidex Sense Beta Plus).
5 mg/ml MTT (M2128, Sigma-Aldrich) solution in PBS (10 µL) was added to each well for MTT assay. After 1 hr, MTT solution and all media were removed from the wells. 100 µl of DMSO was added and mixed to dissolve the formazan crystals. Cell viability was analysed by measuring the absorbance of the dissolved formazan in a microplate reader at a wavelength of 570 nm with microplate reader (Hidex Sense Beta Plus). DMSO was used as control.

Molecules are shown by their SMILES.

T1 sequence (P30613 1-543 isoform P30613-2): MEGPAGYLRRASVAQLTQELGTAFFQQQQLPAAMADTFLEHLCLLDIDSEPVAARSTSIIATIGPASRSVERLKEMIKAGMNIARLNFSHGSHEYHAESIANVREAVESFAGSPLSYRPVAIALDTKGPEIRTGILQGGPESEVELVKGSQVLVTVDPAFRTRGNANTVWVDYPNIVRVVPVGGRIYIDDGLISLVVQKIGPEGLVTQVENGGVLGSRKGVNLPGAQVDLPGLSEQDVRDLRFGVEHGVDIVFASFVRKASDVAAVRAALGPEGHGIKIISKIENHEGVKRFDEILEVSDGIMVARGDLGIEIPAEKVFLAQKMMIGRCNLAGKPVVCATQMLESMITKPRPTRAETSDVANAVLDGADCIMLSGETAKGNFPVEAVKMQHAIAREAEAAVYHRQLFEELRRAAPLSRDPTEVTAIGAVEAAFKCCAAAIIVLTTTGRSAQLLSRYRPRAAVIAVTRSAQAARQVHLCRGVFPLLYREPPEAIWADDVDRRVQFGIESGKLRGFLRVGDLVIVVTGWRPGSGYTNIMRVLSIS

For the molecule `COc1cc2c(cc1OC)N(Cc1ccccc1)S(=O)(=O)c1cc(OC)c(OC)cc1-2` [SET-08, 6-benzyl-2,3,8,9-tetramethoxy-6H-dibenzo[c,e][1,2]thiazine 5,5-dioxide], in assay [1], the “effect on PK activity in HepG2 KO cells (in words)” value is “did not affect the PK activity”. Moreover, in the assay on pyruvate kinase (PK) [2], the “effect on PK activity in HepG2 WT cells (in words)” value is listed as “did not affect the PK activity”.
For `O=S1(=O)c2cc(O)c(O)cc2-c2cc(O)c(O)cc2N1Cc1ccccc1` [SET-09, 6-benzyl-2,3,8,9-tetrahydroxy-6H-dibenzo[c,e][1,2]thiazine 5,5-dioxide], the “reduction in PK activity of HepG2 WT protein lysate” value in the assay on pyruvate kinase (PK) [3] is 42.6%. In addition, the inhibition at 10 µM in assay [4] was 70.2%. The “reduction in TAG/MTT ratio” value in the assay on HepG2 cells is reported as 21.3%.
Regarding `O=S1(=O)Nc2cc(O)c(O)cc2-c2cc(O)c(O)cc21` [SET-10, 2,3,8,9-tetrahydroxy-6H-dibenzo[c,e][1,2]thiazine 5,5-dioxidee], the “reduction in PK activity of HepG2 WT protein lysate” value with pyruvate kinase (PK) [3] amounted to 28.7%. The inhibition at 10 µM in assay [4] was 29.4%. Also, the “effect on PK activity in HepG2 KO cells (in words)” value in assay [1] was “did not affect the PK activity”. Also, the “effect on PK activity in HepG2 WT cells (in words)” value with pyruvate kinase (PK) [2] was “did not affect the PK activity”.
With `O=S(=O)(NCc1ccc(F)cc1)c1cc(O)c(O)cc1-c1ccc(O)c(O)c1` [SET-13, N-(4-fluorobenzyl)-3',4,4',5-tetrahydroxy-[1,1'-biphenyl]-2-sulfonamide], the “reduction in PK activity of HepG2 WT protein lysate” value in the assay on pyruvate kinase (PK) [3] is reported as 15.8%. Further, the inhibition at 10 µM in assay [4] is 70.2%. In addition, the “reduction in TAG/MTT ratio” value with HepG2 cells is on record as 21.9%.
In the same order, the values of `O=S(=O)(NCc1ccccc1)c1cc(O)c(O)cc1-c1ccc(O)c(O)c1` [SET-15, N-benzyl-3',4,4',5-tetrahydroxy-[1,1'-biphenyl]-2-sulfonamide] are 25.4%, 59.1% and 26.8%.
Consider `COc1ccc(CN2c3cc(OC)c(OC)cc3-c3cc(OC)c(OC)cc3S2(=O)=O)cc1` [SET-18, 2,3,8,9-tetramethoxy-6-(4-methoxybenzyl)-6H-dibenzo[c,e][1,2] thiazine 5,5-dioxide], for which the inhibition at 10 µM in assay [1] (HepG2, read-out: inhibition of PK activity in HepG2 KO cells) stood at 7.5%. In addition, the “inhibition of PK activity in HepG2 WT cells” value in the assay with pyruvate kinase (PK) [2] is on record as 6.2%.
In the case of `COc1cc(-c2ccc(C(F)(F)F)cc2)c(S(=O)(=O)NCc2ccccc2)cc1OC` [SET-26, N-benzyl-4,5-dimethoxy-4'-(trifluoromethyl)-[1,1'-biphenyl]-2-sulfonamide], in assay [4], the inhibition at 10 µM is 8%.
Same read-out and setting: as for `COc1cc(Br)c(S(=O)(=O)NCc2cn(CC(=O)c3ccccc3)nn2)cc1OC` [SET-27A, 2-bromo-4,5-dimethoxy-N-((1-(2-xox-2-phenylethyl)-1H-1,2,3-triazol-4-yl)methyl) benzenesulfonamide], the figure is 4.3%; as for `COc1cc(Br)c(S(=O)(=O)NCc2cn(Cc3ccccc3)nn2)cc1OC` [SET-35A, N-((1-benzyl-1H-1,2,3-triazol-4-yl)methyl)-2-bromo-4,5-dimethoxybenzenesulfonamide], 4.4%.
Take `O=S(=O)(NCc1ccc(F)cc1)c1cc(O)c(O)cc1-c1ccc(C(F)(F)F)cc1` [SET-57, N-(4-fluorobenzyl)-4,5-dihydroxy-4'-(trifluoromethyl)-[1,1'-biphenyl]-2-sulfonamide]: the “reduction in PK activity of HepG2 WT protein lysate” value in the assay with pyruvate kinase (PK) [3] is on record as 10.7%. In addition, the inhibition at 10 µM in assay [4] turned out to be 35.2%. In the assay on HepG2 cells, the “TAG content (in words)” value is recorded as “reduced TAG content” and the “reduction in TAG/MTT ratio” value is 15.6%.
Regarding `COc1cc2c(cc1OC)S(=O)(=O)N(Cc1ccc(F)cc1)c1cc(C(F)(F)F)ccc1-2` [SET-58, 6-(4-fluorobenzyl)-2,3-dimethoxy-8-(trifluoromethyl)-6H-dibenzo[c,e][1,2]thiazine 5,5-dioxide], the “reduction in PK activity of HepG2 WT protein lysate” value in the assay on pyruvate kinase (PK) [3] turned out to be 33.8%. In addition, the inhibition at 10 µM in assay [4] worked out at 32.4%. In addition, in the assay with HepG2 cells, the “TAG content (in words)” value is listed as “reduced TAG content”.
Regarding `O=S1(=O)c2cc(O)c(O)cc2-c2ccc(C(F)(F)F)cc2N1Cc1ccc(F)cc1` [SET-59, 6-(4-fluorobenzyl)-2,2-dihydroxy-8-(trifluoromethyl)-6H-dibenzo[c,e][1,2]thiazine 5,5-dioxide], in the assay on pyruvate kinase (PK) [3], the “reduction in PK activity of HepG2 WT protein lysate” value is listed as 13.3%. Moreover, the “reduction in PK activity of HepG2 KO protein lysate” value in assay [4] was 11.1%. Further, the “TAG content (in words)” value in the assay with HepG2 cells is given as “reduced TAG content”.
Regarding `O=S(=O)(NCc1ccccc1)c1cc(O)c(O)cc1-c1ccc(C(F)(F)F)cc1` [SET-60, N-benzyl-4,5-dihydroxy-4'-(trifluoromethyl)-[1,1'-biphenyl]-2-sulfonamide], the inhibition at 10 µM in assay [4] is 17.2%. In addition, in the assay with HepG2 cells, the “TAG content (in words)” value was “reduced TAG content” and the “reduction in TAG/MTT ratio” value amounted to 16.3%.
Turning to `COc1cc2c(cc1OC)S(=O)(=O)N(Cc1ccccc1)c1cc(C(F)(F)F)ccc1-2` [SET-61, 6-benzyl-2,2-dimethoxy-8-(trifluoromethyl)-6H-dibenzo[c,e][1,2]thiazine 5,5-dioxide], the “reduction in PK activity of HepG2 WT protein lysate” value with pyruvate kinase (PK) [3] came out at 11.7%. In addition, in assay [4], the “reduction in PK activity of HepG2 KO protein lysate” value is recorded as 8.8%.
For `O=S(=O)(NCc1ccc(F)cc1)c1cc(O)c(O)cc1-c1ccc(O)cc1` [SET-66B, N-(4-fluorobenzyl)-4,4',5-trihydroxy-[1,1'-biphenyl]-2-sulfonamide], the “PK activity of HepG2 WT protein lysate (in words)” value with pyruvate kinase (PK) [3] is on record as “reduced the PK activity”. Besides, the “PK activity of HepG2 KO protein lysate (in words)” value in assay [4] is “reduced the PK activity”. Moreover, in the assay on HepG2 cells (5 µM for 1 week), the “increase of the TAG/MTT ratio” value is reported as 6.0%.
Consider `O=S(=O)(NCc1ccc(F)cc1)c1cc(O)c(O)cc1-c1cccc(O)c1` [SET-68B, N-(4-fluorobenzyl)-3',4,5-trihydroxy-[1,1'-biphenyl]-2-sulfonamide], for which the “PK activity of HepG2 WT protein lysate (in words)” value in the assay on pyruvate kinase (PK) [3] was “reduced the PK activity”. Further, the “PK activity of HepG2 KO protein lysate (in words)” value in assay [4] was “reduced the PK activity”.
Take `O=S1(=O)c2cc(O)c(O)cc2-c2cc(O)ccc2N1Cc1ccc(F)cc1` [SET-68D, 6-(4-fluorobenzyl)-2,3,9-trihydroxy-6H-dibenzo[c,e][1,2]thiazine 5,5-dioxide]: the “PK activity of HepG2 WT protein lysate (in words)” value with pyruvate kinase (PK) [3] is reported as “highest inhibitory effect”.
As to `O=S(=O)(NCc1ccccc1)c1cc(O)c(O)cc1-c1cccc(O)c1` [SET-69B, N-benzyl-3',4,5-trihydroxy-[1,1'-biphenyl]-2-sulfonamide], the “PK activity of HepG2 WT protein lysate (in words)” value in the assay with pyruvate kinase (PK) [3] is reported as “reduced the PK activity”. In assay [4], the “PK activity of HepG2 KO protein lysate (in words)” value is recorded as “reduced the PK activity”.
Take `O=S1(=O)c2cc(O)c(O)cc2-c2cc(O)ccc2N1Cc1ccccc1` [SET-69D, 6-benzyl-2,3,9-trihydroxy-6H-dibenzo[c,e][1,2]thiazine 5,5-dioxide]: the “PK activity of HepG2 WT protein lysate (in words)” value in the assay with pyruvate kinase (PK) [3] is “reduced the PK activity”. Further, the “PK activity of HepG2 KO protein lysate (in words)” value in assay [4] is listed as “reduced the PK activity”.
Regarding `Cn1c2cc([S+](C)[O-])sc2c2cnn(Cc3cccc(N)c3)c(=O)c21` (stereo not shown) [TEPP46, reference compound], the “effect on PK activity in HepG2 WT cells (in words)” value in the assay on pyruvate kinase (PK) [2] is recorded as “increased activity”.
